Measured values as given in article PMC11172375, “Preclinical Evaluation of Biodistribution and Toxicity of [^211At]PSMA-5 in Mice and Primates for the Targeted Alpha Therapy against Prostate Cancer” (International Journal of Molecular Sciences, 2024).

Assay: Hematological examination in mice
Format: in vivo, ICR mice
Conditions: for %Lymph / Hb / Ht / Platelet / RBC / WBC: mice
Description: [^211At]PSMA-5 was administered intravenously to 25 mice, and its biodistribution was evaluated. For the toxicity study, three doses of [^211At]PSMA-5 (5, 12, and 35 MBq/kg, single dose) or saline were intravenously administered to 10 mice/group for the main evaluation point on day 1, and 5-mice/group for recovery evaluation on day 14, adhering to the ICH M3 (R2) guidelines. The dosage was determined based on our previous study using [^211At]NaAt. The monkeys were monitored for 24 h post-administration of [^211At]PSMA-5 (9 MBq/kg).
A blood cell counter was used for the measurements (CB-1010; ARKRAY, Inc., Kyoto, Japan). Red blood cell count (RBC), hemoglobin concentration (Hb), hematocrit (Ht), white blood cell count (WBC), platelet count (platelet), lymphocytes (%Lymph), monocytes (%Mon), and granulocytes (%Gra) were calculated. Plasma was analyzed using a dry clinical chemistry analyzer (Spotchem D-00 QR D-02; ARKRAY, Inc., Kyoto, Japan). The levels of aspartate aminotransferase (AST), alanine aminotransferase (ALT), gamma-glutamyl transpeptidase (γ-GTP), lactate dehydrogenase (LDH), alkaline phosphatase (ALP), creatine kinase (CK), amylase (AMY), total bilirubin (TBIL), creatinine (CRE), urea nitrogen (BUN), glucose (GLU), total protein (TP), albumin (ALB), total cholesterol (TCHO), triglyceride (TG), and electrolytes (Na, K, and Cl) were measured.

## O=C(O)CC[C@H](NC(=O)N[C@@H](CCCCNC(=O)[C@@H](Cc1ccc2ccccc2c1)NC(=O)c1ccc(CNC(=O)[C@@H](CCC(=O)O)NC(=O)[C@@H](CCC(=O)O)NC(=O)Cc2ccc([211At])cc2)cc1)C(=O)O)C(=O)O [[^211At]PSMA-5]
mice, 5, 12 and 35 MBq/kg, day 1 or day 14
  blood examination versus control group: no significant difference
5 MBq/kg i.v., day 1
  %Lymph: 66.3 ± 15.8%
  Hb: 12.9 ± 0.4 g/dL
  Ht: 42.5 ± 1.4%
  Platelet: 976 ± 524 10^3 cell/µL
  RBC: 7.8 ± 0.3 10^6 cell/µL
  WBC: 6.3 ± 4.1 10^3 cell/µL
5 MBq/kg i.v., day 14
  %Lymph: 70 ± 8.8%
  Hb: 14.4 ± 0.4 g/dL
  Ht: 45.4 ± 1%
  Platelet: 1120 ± 555 10^3 cell/µL
  RBC: 8.7 ± 0.2 10^6 cell/µL
  WBC: 6.9 ± 3.3 10^3 cell/µL
12 MBq/kg i.v., day 1
  %Lymph: 62.6 ± 14.2%
  Hb: 13.0 ± 0.8 g/dL
  Ht: 42.6 ± 2.3%
  Platelet: 1329 ± 845 10^3 cell/µL
  RBC: 8.0 ± 0.5 10^6 cell/µL
  WBC: 8.3 ± 4.9 10^3 cell/µL
12 MBq/kg i.v., day 14
  %Lymph: 59.9 ± 12.1%
  Hb: 13.8 ± 0.9 g/dL
  Ht: 43.9 ± 3%
  Platelet: 922 ± 608 10^3 cell/µL
  RBC: 8.3 ± 0.6 10^6 cell/µL
  WBC: 6.9 ± 1.9 10^3 cell/µL
35 MBq/kg i.v., day 1
  %Lymph: 53.5 ± 16.9%
  Hb: 12.8 ± 0.7 g/dL
  Ht: 42.3 ± 2%
  Platelet: 952 ± 444 10^3 cell/µL
  RBC: 7.9 ± 0.3 10^6 cell/µL
  WBC: 8.0 ± 5.2 10^3 cell/µL
35 MBq/kg i.v., day 14
  %Lymph: 53.9 ± 6.4%
  Hb: 13.6 ± 0.7 g/dL
  Ht: 43.1 ± 2.4%
  Platelet: 1331 ± 1037 10^3 cell/µL
  RBC: 8.4 ± 0.4 10^6 cell/µL
  WBC: 5.4 ± 2.8 10^3 cell/µL
